Assay results: US6753297B2, “Use of indole-3-succinic acid as auxin” (priority 2001, dated 2004)
Blank lines part the entries; values can stand above or below the compound they belong to.

How the values were obtained:
Fuchsia hybrida = assay: Effectiveness of indole-3-succinic acid derivatives in root growth, procedure of Example 3; format: in vivo; settings: 10^−7 M aqueous solution
Experimental: (§1) Five new-growth cuttings of two different varieties of Fuchsia hybrida (i.e., Varigated Fuchsia and Swingtime Fuchsia) were placed into the 50 mL solutions contained in orange plastic pill containers that were blackened with black electrician's tape. The solutions were placed in a fiberglass solar prism greenhouse (90% of UV light is filtered out of sunlight) in which the temperatures varied from 55° F. (night) to 100° F. (day). The solutions were topped with deionized water daily to the 50 mL mark to compensate for water […] and evaporation. Readings of the root growth were measured in total mm for the cuttings in a particular solution on days 7, 10, 14, 18, 22, 26, 30, and 34. These were recorded as the number of rootlets/total length (mm). […] Therefore, all data reflect the average mm root growth per survived cutting.
The process recited in Example 1 was followed to make the derivatives and they were each tested in accordance with the procedure in Example 3 in a 10^−7 M aqueous solution. The derivatives and their effectiveness compared to conventional auxins is reported below.

Varigated Fuchsia = assay: Root growth of Varigated Fuchsia cuttings in hydroponic auxin solution; format: in vivo, Fuchsia hybrida; settings: for Enhancement Ratio: Varigated Fuchsia (VF), R = (ISAx − H2O)/(IBA − H2O), average root growth per cutting; for root growth activity compared to IBA: versus 10^−7 M IBA
Experimental: (§2) This example illustrates the auxin effect of each indole-3-succinic acid enantiomer and indole-3-succinic acid racemate, and compares them to IBA and water. A detailed description of this root growth study follows.
(§3) Fresh solutions were used in each experiment. Weights of hormone salts were measured to ±0.01 mg on a Mettler H-16 single-pan mechanical balance (reproducibility=±0.03 mg). Using indole-3-succinic acid R and S enantiomers as the 2×NH4^+ salt, 1.40 mg, was dissolved in 95% ethanol (20 mL) and slowly diluted to 500 mL with deionized water to make a stock solution of 1.047×10^−5 molar concentration. Dilutions were then made in the following manner.
(§4) For the concentration study (S)-indole-3-succinic acid; 2NH4^+ (98% e/e, 1.41 mg), and IBA Na(1.13 mg) were used to make stock solution of 1.055×10^−5 and 1.005×10^−5 molar, respectively. Deionized water was also used as a control.
as §1
(§5) This example compares indole-3-succinic acid enantiomers and ISA racemate to IBA and IAA. More specifically, Table 1 illustrates the relative effectiveness (in promoting root growth) of different indole-3-succinic acid solutions compared to 10^−7 M indole-3-butyric acid (IBA) and a 10^−7 M […].
(§6) This example was conducted in the same manner as in Example 2 above.

Swingtime Fuchsia = assay: Root growth of Swingtime Fuchsia cuttings in hydroponic auxin solution; format: in vivo, Fuchsia hybrida; settings: for Enhancement Ratio: Swingtime Fuchsia (SF), R = (ISAx − H2O)/(IBA − H2O), average root growth per cutting; for root growth activity compared to IBA: versus 10^−7 M IBA
Experimental: as §2, §3, §4, §1, §5, §6

Compound: O=C(O)CC(C(=O)O)c1c[nH]c2cccc(Cl)c12 (centres unmarked) [4-chloroindole-3-succinic acid]
Effectiveness compared to IAA (Fuchsia hybrida): 22× more effective than IAA

Compound: O=C(O)CC(c1ccccc1)c1c[nH]c2ccccc12 (centres unmarked) [3′-indole-3-phenylpropanoic acid]
Effectiveness compared to IAA (Fuchsia hybrida): 2× as effective as IAA

Compound: O=C(O)Cc1c[nH]c2ccccc12 [IAA, indole-3-acetic acid, reference compound]
Enhancement Ratio (Varigated Fuchsia; 10^−7 M): 0
root growth activity compared to IBA (Varigated Fuchsia; Varigated Fuchsia): substantially lower levels of activity
Enhancement Ratio (Swingtime Fuchsia; 10^−7 M): 0
root growth activity compared to IBA (Swingtime Fuchsia; Swingtime Fuchsia): substantially lower levels of activity

Compound: O=C(O)C[C@@H](C(=O)O)c1c[nH]c2ccccc12 [(R)-ISA, (R)-indole-3-succinic acid]
Enhancement Ratio (Varigated Fuchsia; 10^−7 M): 0.7
Enhancement Ratio (Varigated Fuchsia; 10^−8 M): 4.4
root growth activity compared to IBA (Varigated Fuchsia; Varigated Fuchsia): nearly the same activity
Enhancement Ratio (Swingtime Fuchsia; 10^−7 M): 5.6
Enhancement Ratio (Swingtime Fuchsia; 10^−8 M): 7.1
potency compared to the other ISA enantiomer (Swingtime Fuchsia; Swingtime Fuchsia, 10^−8 M, FIG. 5): more potent

melting point: 196 to 198 °C
Compound: O=C(O)CC(C(=O)O)c1c[nH]c2ccccc12 (racemic) [Racemic ISA, indole-3-succinic acid]
Enhancement Ratio (Swingtime Fuchsia; 10^−7 M): 7.0
root growth activity compared to IBA (Swingtime Fuchsia; Swingtime Fuchsia): significantly higher

Compound: O=C(O)C[C@H](C(=O)O)c1c[nH]c2ccccc12 [(S)-ISA, (S)-indole-3-succinic acid]
Enhancement Ratio (Varigated Fuchsia; 10^−7 M): 3.8
Enhancement Ratio (Varigated Fuchsia; 10^−8 M): 4.6
potency compared to the other ISA enantiomer (Varigated Fuchsia; Varigated Fuchsia, all concentrations of ISA, FIG. 5): more potent
Enhancement Ratio (Swingtime Fuchsia; 10^−7 M): 5.7
Enhancement Ratio (Swingtime Fuchsia; 10^−8 M): 4.8

Compound: CC(CC(=O)O)c1c[nH]c2ccccc12 (centres unmarked) [3′-indole-3-methylpropanoic acid]
Effectiveness compared to IBA (Fuchsia hybrida): same as IBA

Compound: O=C(O)CC(C(=O)O)c1c[nH]c2ccc(Cl)cc12 (centres unmarked) [5-chloroindole-3-succinic acid]
Effectiveness compared to IAA (Fuchsia hybrida): 2× more effective than IAA

Compound: O=C(O)CC(C(=O)O)c1c[nH]c2ccc(Br)cc12 (centres unmarked) [5-bromoindole-3-succinic acid]
Effectiveness compared to IAA (Fuchsia hybrida): same as IAA
